Entries after “also recorded” stand apart in the source; their conditions may differ.

These results are taken from patent US12128035B2, “Activating pyruvate kinase R” (Novo Nordisk Health Care AG, priority 2021, dated 2024).

Data set [1] deals with p50 (PO2 at 50% hemoglobin saturation). Kind of data set: Phase 1 SAD/MAD: p50 (Hemox Analyzer) in healthy volunteers. It is filed as in vivo, human. As to conditions: for Mean p50 Value: 24 hours after first dose on day 14; for Mean Absolute Change in p50 / Mean Percentage Change in p50: 24 hours after first dose on day 14, relative to baseline; for median reduction in p50: all dose levels; for Mean Absolute Change in p50 (mmHg): 24 hours after dose, relative to baseline. The method, then:
In the SAD cohorts, the subjects' p50 (PO2 at 50% hemoglobin saturation) were determined 24-hours post-dose. p50 measured 24 hours after a single dose of Compound 1 were reduced at all dose levels tested (median reduction ranged from ˜3-5 mmHg). Table 17 reports the mean absolute change in p50, relative to baseline, measured 24 hours after a single dose of Compound 1 (200 mg, 400 mg, 700 mg, or 1000 mg) or placebo in healthy volunteers.
In the MAD cohorts, the subjects' p50 (PO2 at 50% hemoglobin saturation) were determined on day 14. p50 values measured after 14 days of twice daily dosing were reduced at all dose levels tested (median reduction ranged from ˜3-5 mmHg). Table 19 reports the mean p50 value and the mean absolute change and percentage change in p50, relative to baseline, measured 24 hours after the first dose given on day 14 in healthy volunteers who received daily doses of Compound 1 (100 mg BID, 200 mg BID, 300 mg BID, or 400 mg QD) or placebo for 14 days.
The oxygen affinity of RBCs was measured in patient blood using a Hemox Analyzer (TCS Scientific Corp.), an automatic system for the recording of blood oxygen equilibrium curves and related phenomena. The Hemox Analyzer was used according to standard methods to determine the hemoglobin-oxygen dissociation curves for whole blood samples, numerically characterized by the p50, the partial pressure of oxygen at which hemoglobin is 50% saturated. The operating principle of the Hemox-Analyzer is based on dual-wavelength spectrophotometry for the measurement of the optical properties of hemoglobin and a Clark electrode for measuring the oxygen partial pressure in millimeters of mercury. Whole blood is diluted and placed into a special plastic cuvette that is maintained at 37° C. To perform the analysis, a beam of polychromatic light is passed through the cuvette and is made monochromatic prior to reaching the photomultiplier detectors. In the case of hemoglobin, the wavelength of maximum absorbance is the measuring wavelength (560 nm), while the reference wavelength is at the isosbestic point at (570 nm). The absorbance at the isosbestic point remains unchanged during the deoxygenation process of the hemoglobin, however the measuring wavelength (560 nm) undergoes a drastic change in absorbance. This change is detected by the electronic circuitry and is plotted as the log/ratio change between the two wavelengths. The log/ratio measurement at 560 nm and 570 nm is utilized to measure the optical absorbance change during the deoxygenation of the hemoglobin. Simultaneously with the measurement of the hemoglobin absorbance, the oxygen concentration is directly measured in the sample using a Clark electrode. Under normal atmospheric conditions of 760 mm of mercury the oxygen concentration (i.e., the oxygen partial pressure) is 149 mm of mercury. This saturation point is used for full-scale calibration of the computer prior to starting the plotting of the curve. When the oxygen is being replaced by an inert gas (nitrogen) in a continuous procedure, hemoglobin becomes deoxygenated.

Data set [2] addresses T1, aromatase (Homo sapiens, UniProt P11511).
T1 construct: endogenous in cells; host or cells: H295R adreno-cortical carcinoma cells; healthy human subjects in vivo
T1 sequence (P11511 1-503): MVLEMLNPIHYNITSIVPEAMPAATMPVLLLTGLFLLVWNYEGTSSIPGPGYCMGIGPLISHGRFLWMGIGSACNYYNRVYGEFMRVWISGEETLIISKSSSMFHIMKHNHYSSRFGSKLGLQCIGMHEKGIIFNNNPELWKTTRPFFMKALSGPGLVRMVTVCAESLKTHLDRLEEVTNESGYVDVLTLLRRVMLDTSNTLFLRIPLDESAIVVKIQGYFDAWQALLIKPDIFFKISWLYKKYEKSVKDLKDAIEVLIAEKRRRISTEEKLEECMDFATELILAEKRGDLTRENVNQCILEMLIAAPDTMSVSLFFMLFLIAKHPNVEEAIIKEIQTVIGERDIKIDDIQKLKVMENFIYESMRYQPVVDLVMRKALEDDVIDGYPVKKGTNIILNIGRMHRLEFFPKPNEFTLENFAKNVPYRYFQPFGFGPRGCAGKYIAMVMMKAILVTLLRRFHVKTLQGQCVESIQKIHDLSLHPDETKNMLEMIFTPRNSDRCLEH
Briefly: Aromatase inhibition. The note with it: clinical trials and non-clinical testing. An excerpt: Aromatase is an enzyme encoded by the CYP19A1 gene. It is located in the endoplasmic reticulum of estrogen-producing cells and catalyzes the rate-limiting step in the conversion of androgens to estrogens in many tissues. Aromatase is a cytochrome P-450 hemoprotein-containing enzyme complex that catalyzes the rate-limiting step in the production of estrogens, i.e. the conversion of androstenedione and testosterone, via three hydroxylation steps, to estrone and estradiol. Aromatase activity is present in many tissues, such as the ovaries, adipose tissue, muscle, liver, breast tissue, and in malignant breast tumors. The main sources of circulating estrogens are the ovaries in premenopausal women and adipose tissue in post-menopausal women. Aromatase catalyzes the conversion of androgens to estrone (E1), which is further converted to the potent estrogen estradiol (E2) by the enzyme 17β-HSD type 1 in the granulosa cell.
Aromatase is a key enzyme in the steroidogenic pathway that catalyzes the conversion of androgens, including testosterone, into estradiol. […]
Effects on circulating levels of estradiol and testosterone in male and female healthy subjects receiving Compound 1 or placebo for a treatment period of 14 days were evaluated. […] Testosterone and estradiol levels were assessed prior to dosing (baseline), and then on days 8, 14 and 17.

As to `O=C([C@H](CO)c1ccccc1)N1CC2=C(C1)CN(S(=O)(=O)c1cnc3c(c1)OCCO3)C2` (single isomer, unassigned) [Compound 1], the “Mean p50 Value” in data set [1] (HV 100 mg BID) stood at 22.96 mmHg; in data set [1] (HV 200 mg BID) it was 22.33 mmHg; in data set [1] (HV 300 mg BID), 21.69 mmHg; in data set [1] (HV 400 mg QD) it was 21.75 mmHg. Further, the “Mean Absolute Change in p50” value in data set [1] (HV 100 mg BID) was −3.26 mmHg; in data set [1] (HV 200 mg BID), −5.34 mmHg; in data set [1] (HV 300 mg BID), −4.24 mmHg; in data set [1] (HV 400 mg QD), −4.09 mmHg. In addition, the “Mean Percentage Change in p50” value was −12.42% in data set [1] (HV 100 mg BID), −19.33% in data set [1] (HV 200 mg BID), −16.05% in data set [1] (HV 300 mg BID) and −15.76% in data set [1] (HV 400 mg QD). Further, the “median reduction in p50” value is recorded as 3-5 mmHg in data set [1] (HV MAD cohorts, after 14 days of dosing) and 3-5 mmHg in data set [1] (HV SAD, 24 hours after a single dose). In addition, the “Mean Maximum Percent Change from Baseline, p50” value in data set [1] (HV MAD, all doses and timepoints (N = 36)) is on record as −15.9%; in data set [1] (HV SAD, all doses and timepoints (N = 24)) it was −15.6%. Moreover, the “Mean Absolute Change in p50 (mmHg)” value is given as −2.91 mmHg in data set [1] (HV single 200 mg), −3.41 mmHg in data set [1] (HV single 400 mg), −4.85 mmHg in data set [1] (HV single 700 mg) and −5.05 mmHg in data set [1] (HV single 1000 mg). In data set [2], the aromatase inhibition result is “has not shown evidence of inhibition of aromatase; also recorded: absence of aromatase inhibition”.
